Columns and labels:
Type in all cases: physicochemical
[1] = Methotrexate release from PCL discs; conditions: high MePEG concentrations
Procedure: A known weight of a polymer (typically a 2.5 mg pellet) is added to a 15 ml test tube containing 14 ml of a buffer containing 10 mm Na2 HPO4 --NaH2 PO4, 0.145 m NaCl and 0.4 g/l bovine serum albumin. The tubes are capped and tumbled at 37° C. At specific times all the 14 ml of the liquid buffer are removed and replaced with fresh liquid buffer.
The aqueous phase is then removed and the methylene chloride phase is dried under nitrogen. The residue is then dissolved in 60% acetonitrile: 40% water and the solution is injected on to a HPLC system using the following conditions: C8 column (Beckman Instruments USA), mobile phase of 58%:5%:37% acetonitrile: methanol: water at a flow rate of […].
For MTX the collected buffer is applied directly to the HPLC column with no need for extraction in methylene chloride. MTX is analyzed at 302 nm. For Vanadium containing compounds the liquid buffer is analyzed directly using a UV/VIS spectrometer in the 200 to 300 nm range.
Methotrexate ("MTX"; Sigma Chemical Co.) is ground in a pestle and mortar to reduce the particle size to below 5 microns. It is then mixed as a dry powder with polycaprolactone (molecular wt 18000 Birmingham Polymers, Ala. USA). The mixture is heated to 65° C. for 5 minutes and the molten polymer/methotrexate mixture is stirred into a smooth paste for 5 minutes. […]

[2] = Vanadyl sulfate release from PCL
Procedure: Vanadyl Sulfate (Fisher Scientific) is first ground in a pestle and mortar to reduce the particle size, then dispersed into melted PCL as described above for MTX. It is then taken up into a syringe to solidify and is ready for use.
Drug release was determined essentially as described above in Example 33, except that a 65 mg pellet of a 10% w/w VOSO4 :PCL was suspended in 10 ml of water and the supernatant analyzed for released Vanadyl Sulphate using UV/Vis absorbance spectroscopy of the peak in the 200 to 300 nm range.

[3] = Encapsulation of sodium suramin in ELVAX microspheres
Procedure: One milliliter of 5% ELVAX (poly(ethylene-vinyl acetate) cross-linked with 5% vinyl acetate) in dichloromethane ("DCM") is mixed with a fixed weight of sub-micron ground sodium suramin. This mixture is injected into 5 ml of 5% Polyvinyl Alcohol ("PVA") in water in a 30 ml flat bottomed test tube. Tubes containing different weights of the drug are then suspended in a multi-sample water bath at 40° for 90 minutes with automated stirring. The mixtures are removed, and microsphere samples taken for size analysis. Tubes are centrifuged at 1000 g for 5 min. The PVA supernatant is removed and saved for analysis (nonencapsulated drug). The microspheres are then washed (vortexed) in 5 ml of water and recentrifuged. The 5 ml wash is saved for analysis (surface bound drug). Microspheres are then wetted in 50 μl of methanol, and vortexed in 1 ml of DCM to dissolve the ELVAX. The microspheres are then warmed to 40° C., and 5 ml of 50° C. water is slowly added with stirring. This procedure results in the immediate evaporation of DCM, thereby causing the release of sodium suramin into the 5 ml of water.
All samples were assayed for drug content by quantification of fluorescence. Briefly, sodium suramin absorbs uv/vis with a lambda max of 312 nm. This absorption is linear in the 0 to 100 μg/ml range in both water and 5% PVA. […] This fluorescence is quantifiable in the 0 to 25 μg/ml range.

SMILES: CN(Cc1cnc2nc(N)nc(N)c2n1)c1ccc(C(=O)N[C@@H](CCC(=O)O)C(=O)O)cc1 [MTX]
- MTX release [1]: substantial amounts of MTX can be released from the polymer

SMILES: O=S(=O)([O-])[O-].[O]=[V+2] [VOSO4, vanadyl sulfate]
- VOSO4 released ([2]; 6 hours, 65 mg pellet 10% w/w in water): 1 mg
- VOSO4 released ([2]; 2 days, 65 mg pellet 10% w/w in water): 3 mg
- VOSO4 released ([2]; day 6, 65 mg pellet 10% w/w in water): 5 mg

SMILES: Cc1ccc(C(=O)Nc2ccc(S(=O)(=O)O)c3cc(S(=O)(=O)O)cc(S(=O)(=O)O)c23)cc1NC(=O)c1cccc(NC(=O)Nc2cccc(C(=O)Nc3cc(C(=O)Nc4ccc(S(=O)(=O)O)c5cc(S(=O)(=O)O)cc(S(=O)(=O)O)c45)ccc3C)c2)c1 [suramin]
- drug encapsulated in 50 mg of ELVAX ([3]; 50 mg ELVAX): 50 µg
- % encapsulation ([3]; ELVAX microspheres): < 1%
